Key:
[1] = Pattern stability screen of potential salts (40° C./75% RH, XRPD); assay type: physicochemical
Experimental: XRPD analysis was carried out on a PANalytical X'pert pro, scanning the samples between 3 and 35° 20. The material was gently compressed and loaded onto a multi-well plate with Kapton or Mylar polymer film to support the sample.
Primary Salt Screening. […] The solvent systems shown in Table were selected for salt screening. For sulfonic acids MEK was used instead of methanol and acetone:water 50:50 (v/v) was used instead of IPA:water to avoid any potential genotoxic impurities. Ca. […] If the acid was insoluble in the selected solvent, a slurry was used. If the acid was a liquid it was added to the API slurry from a stock solution in the allocated solvent. The mixtures of API/counterion/solvent were temperature cycled between ambient and 40° C. in 4 hour cycles for ca. 3 days. Any solids present were isolated and allowed to dry at ambient conditions, for ca. 30 minutes prior to analysis by XRPD. Where solutions were obtained they were evaporated to obtain solid material.

[2] = 7 day stability testing of salts (40° C./75% RH, 80° C., ambient light; HPLC purity, XRPD); assay type: physicochemical; details: for Purity (%) / XRPD pattern after 7 day stability testing: listed as HBr salt
Experimental: High Performance Liquid Chromatography-Ultraviolet Detection (HPLC-UV): Instrument: Dionex Ultimate 3000; Column: Acquity CSH C18 100 mm×2.1 mm 1.7 μm; Column Temperature: 50° C.; Autosampler Temperature: Ambient; UV wavelength: 210 nm; Injection Volume: 4 μL; Flow Rate: 0.6 mL/min; Mobile Phase A: 0.1% formic acid in water; Mobile Phase B: 0.1% formic acid in acetonitrile. The HPLC method used the gradient in Table 2.
FT-IR appeared to be consistent with the structure. […] The material was physically stable to changes in temperature and humidity when stored for one week.
A new, poorly crystalline pattern was produced when stored at 40° C./75% RH—Pattern 4.
Purity of these materials remained unchanged (as shown in Table) apart from the sample stored at ambient light, where a 0.5% drop in purity was observed.

[3] = Aqueous solubility assessment of salts; assay type: physicochemical; details: primary screen samples
[4] = Citrate buffer formulation; assay type: physicochemical
[5] = 0.5 mg/mL solubility assessment (filtered/unfiltered); assay type: physicochemical; details: 0.5 mg/mL experiment; for pH: listed as HBr
[6] = Solid state and chemical stability of nintedanib HBr and HCl salts through 6 months; assay type: physicochemical; details: for Weight loss: TGA/DSC
Text: Table 24 and Table 25 summarize the total impurities (by HPLC), polymorphic form (by X-ray powder diffraction) and, where applicable, weight loss (by TGA/DSC) for both the HCl and HBr salt forms. […] There were no changes in polymorphic form for both salt forms stored at 25 C/60% RH condition.

[7] = HBr and HCl salts-filter compatibility study; assay type: physicochemical; details: 0.22 μm PTFE filter; 3% PG solution; glass vials, ambient room condition
Experimental: HBr and HCl salts-filter compatibility study: this study was conducted to assess the compatibility of the HBr and the HCl salts with various membrane filters. […] The glass vials were stored at ambient room condition and visual appearance was periodically inspected.

[8] = Inhaled pharmacokinetics of nintedanib salt forms (intratracheal); assay type: in vivo, C57BL/6 mice; details: 1 mg/kg (base equivalent) IT, mice; listed as nintedanib hydrobromide
[9] = Therapeutic bleomycin model: dose levels and lung pharmacokinetic comparison; assay type: in vivo, Sprague Dawley rats; details: rat
[10] = Formulation development/optimization and long-term stability of nintedanib HBr and HCl formulations
[11] = Human inhaled dose projection vs Ofev 150 mg oral; details: human projection
[12] = Therapeutic silica model: body and lung weights; assay type: in vivo, C57BL/6 mice; details: oral 30 mg/kg BID and inhaled (IN) 0.021-[…] QD nintedanib HBr
Experimental: Briefly, acclimated 20-22 g female C57BL/6 mice were administered silica on day 1 by the intratracheal route. On the tenth day, treatment was initiated with either saline or nintedanib. […] Sham and silica control groups received saline either IN or PO. Five animals were enrolled into sham groups, 10 animals enrolled into each PO dose groups, and 13 animals were enrolled into each IN dosing group. […] Body weights were collected throughout the study, with lung weights at termination. Flexivent was performed to determine elastance (lung function; Table 59). Left lungs were extracted, stained as assessed for parenchymal collagen (Table 60) and α-smooth muscle actin (αSMA; Table 61), while right lungs were assessed for interleukin-1β (IL-1β; Table 62). As expected, all mice administered silica lost weight from days 0 to 4. All silica administered mice began to recover from weight loss at around day 6 and continued recovery reaching their initial weight by day 10 (first therapeutic intervention). […] Neither oral or inhaled (IN) treatment or vehicles altered these characteristics.

[13] = cited from earlier work
[14] = 0.5 mg/mL citrate buffer experiments, listed as HBr
[15] = 40° C./75% RH, 2 months, listed as Nintedanib HBr salt
[16] = 40° C./75% RH, 6 months, listed as Nintedanib HBr salt

Compound: COC(=O)c1ccc2c(c1)NC(=O)/C2=C(\Nc1ccc(N(C)C(=O)CN2CCN(C)CC2)cc1)c1ccccc1 [Nintedanib HBr]
- XRPD pattern after 72 hrs 40° C./75% RH ([1]; Initial pattern 3, listed as HBr): 3
- XRPD pattern after 72 hrs 40° C./75% RH ([1]; Initial pattern 4): 4
- XRPD pattern after 72 hrs 40° C./75% RH ([1]; Initial pattern 5): 5
- Purity (%) ([2]; 40° C./75% RH, 7 day stability testing): 99.7%
- XRPD pattern after 7 day stability testing ([2]; 40° C./75% RH): mixture of Pattern 1 and 4
- XRPD pattern after 7 day stability testing ([2]; 80° C. and ambient conditions/light): remain Pattern 1
- Purity (%) ([2]; 80° C., 7 day stability testing): 99.6%
- Purity (%) ([2]; Ambient, 7 day stability testing): 99.2%
- Purity (%) ([2]; Input): 99.7%
- drop in purity ([2]; stored at ambient light, 7 day): 0.5%
- pH (aqueous solubility measurement) [3]: 3.95
- solubility ([3]; water, thermodynamic from solid, read-out: Solubility (aqueous)): ~5 mg/mL
- Initial pH [4, 14]: 4.83
- pH 1 h [4, 14]: 4.82
- attempt to solubilize in citrate buffer ([4]; pH 4.8 buffer, ca. 0.5 mg/mL (Nintedanib)): unsuccessful
- concentration for filtered sample compared to unfiltered ([5]; listed as HBr salt): 94%
- pH ([5]; Filtered): 5.31
- pH ([5]; Unfiltered): 5.12
- Polymorphic form ([6]; 25° C./60 % RH, 1 week): Pattern 1
- Total impurities ([6]; 25° C./60 % RH, 1 week, listed as Nintedanib HBr salt): 0.40%
- Polymorphic form ([6]; 25° C./60 % RH, 2 months): Pattern 1
- Total impurities ([6]; 25° C./60 % RH, 2 months, listed as Nintedanib HBr salt): 0.42%
- Polymorphic form ([6]; 25° C./60 % RH, 4 weeks): Pattern 1
- Total impurities ([6]; 25° C./60 % RH, 4 weeks, listed as Nintedanib HBr salt): 0.33%
- Polymorphic form ([6]; 25° C./60 % RH, 6 months): Pattern 1
- Total impurities ([6]; 25° C./60 % RH, 6 months, listed as Nintedanib HBr salt): 0.47%
- Polymorphic form ([6]; 25° C./60 % RH, Initial): Pattern 1
- Weight loss ([6]; 25° C./60 % RH, Initial, listed as Nintedanib HBr salt): 0.23%
- Total impurities ([6]; 40° C./75% RH, 1 week, listed as Nintedanib HBr salt): 0.43%
- Weight loss ([6]; 40° C./75% RH, 2 months): 4.12%
- Polymorphic form [6, 15]: Pattern 4
- Total impurities [6, 15]: 0.41%
- Weight loss ([6]; 40° C./75% RH, 4 weeks): 1.33%
- Weight loss ([6]; 40° C./75% RH, 6 months): 3.72%
- Polymorphic form [6, 16]: Pattern 4
- Total impurities [6, 16]: 0.44%
- Weight loss ([6]; 40° C./75% RH, Initial, listed as Nintedanib HBr salt): 0.23%
- visual appearance after filtration [7]: no change in appearance through 1 month
- lung half-life [8]: about 4 minutes
- Lung AUC ([9]; Oropharyngeal (OP) 0.05 mg/kg): 1.6 mg·h/kg
- Lung Cmax ([9]; Oropharyngeal (OP) 0.05 mg/kg): 1.4 µg/g
- Lung AUC ([9]; Oropharyngeal (OP) 0.25 mg/kg): 7.8 mg·h/kg
- Lung Cmax ([9]; Oropharyngeal (OP) 0.25 mg/kg): 7.0 µg/g
- Lung AUC ([9]; Oropharyngeal (OP) 0.375 mg/kg): 11.6 mg·h/kg
- Lung Cmax ([9]; Oropharyngeal (OP) 0.375 mg/kg): 10.5 µg/g
- compatibility with citric acid, fumaric acid [10]: incompatible
- upper concentration limit (no re-crystallization) [10]: 1.38 mg/mL

Compound: COC(=O)c1ccc2c(c1)NC(=O)/C2=C(\Nc1ccc(N(C)C(=O)CN2CCN(C)CC2)cc1)c1ccccc1 [Nintedanib, methyl (3Z)-3-[[4-[methyl-[2-(4-methylpiperazin-1-yl)acetyl]amino]anilino]-phenylmethylidene]-2-oxo-1H-indole-6-carboxylate]
- device loaded dose resulting in the same lung AUC as the 150 mg oral dose [11]: 0.04 mg
- device loaded dose resulting in the same plasma AUC as a 150 mg oral dose [11]: 0.42 mg
- lung weights compared to control mice [12]: Neither oral nor inhaled (IN) nintedanib significantly affected lung weights
- administered nintedanib excreted in the urine ([13]; in vivo): About 80%
- oral bioavailability ([13]; oral nintedanib): 5%

— patent US12090225B2 (Avalyn Pharma Inc., priority 2018, dated 2024)
